{
  "source": "patent US20240217946A1",
  "about": "“ANTIDEPRESSANT AND ANXIOLYTIC SUBSTITUTED CINNAMAMIDE COMPOUND” (TASLY PHARMACEUTICAL GROUP CO., LTD., priority 2021, published 2024)",
  "key": {"ICR mice": {"system": "ICR mice", "assay": "Elevated plus maze experiment in mice, single administration", "assay_type": "in vivo", "procedure": "50 male ICR mice were randomly divided into 5 groups (a solvent control group, estazolam group, M2 high dosage group, M2 medium dosage group, M2 low dosage group), with 10 mice in each group. The compound M2 high, medium and low dosage groups were intragastrically administered at 20 mg/kg. 10 mg/kg and 5 mg/kg, respectively; the positive drug estazolam was intragastrically administered at 2.5 mg/kg; and the solvent control group was gavaged with an equal volume of solvent. Behavior test was performed in each group 30 min after single administration. The experiments were required to be conducted between 8:00 am and […], and all animals entered the test laboratory on the previous day.\nThe laboratory was dimly lit (with the lowest brightness that can distinguish the subtle activities of mice at a distance of 1.5 m) and the brightness was kept constant, with a room temperature of about 20° C., and kept quiet. Before the maze test, each mouse was placed in a 35 cm*10 cm*5 cm plastic box and left to explore freely for 5 min and then quickly placed at the central platform of an elevated plus maze, with its head facing one of the open arms, and the following indexes were recorded upon release. Each mouse was tested for 5 min. Observers observed and recorded animal activities at a distance of 1.5 m. At intervals, the maze was wiped with a wet cloth to remove feces, and then wiped with a dry cloth before a next mouse was tested.\n• (1) The number of open arm entries (OE): the number of entries into any open arm, based on the fact that all four claws of the mouse entered the arm, and a complete exit of one claw from the arm indicated the completion of the entry activity; • (2) open arm time (OT): the time of entering an open arm, with the unit of seconds; • (3) the number of close arm entries (CE): the number of entries into any close arm, based on the fact that all four claws of the mouse entered the arm; • (4) close arm time (CT): the time of entering a close arm, with the unit of seconds; • (5) percentage of open arm time: OT %=OT/(OT+CT)*100%; and • (6) percentage of open arm entries: OE %=OE/(OE+CE)*100%.\n70 male ICR mice were randomly divided into 7 groups (a solvent control group, estazolam group, compound M2 group, compound II-3 group, compound II-4 group, compound II-5 group, and compound II-10 group), with 10 mice in each group. The dosage of M2 and its four structurally similar compounds was determined as 20 mg/kg according to the experimental results of 3.1: the positive drug estazolam was administered intragastrically at 2.5 mg/kg; and the solvent control group was gavaged with an equal volume of solvent. Behavior test was performed in each group 30 min after single administration. The experiments were required to be conducted between 8:00 am and […], and all animals entered the test laboratory on the previous day.\nThe behavioral test method and behavioral observation indexes were the same as those in 3.1.\n(§1) Data was expressed as mean±standard (mean±SD) difference, and statistics of data differences were made by one-way analysis of variance (ANOVA) or nonparametric test, and differences between groups were determined by P<0.05."}, "SD rats": {"system": "SD rats", "assay": "Vogel drinking conflict experiment in rats, single administration", "assay_type": "in vivo", "procedure": "75 male SD rats, with the body weight of 180-220 g, were fed adaptively for 1 week, water deprived for 24 h for training period test. The animals screened to be qualified were randomly divided into 7 groups (a solvent control group, estazolam group, compound M2 group, compound II-3 group, compound II-4 group, compound II-5 group and compound II-10 group) according to their body weight, with 8 rats in each group. […] results of 3.1: the positive drug estazolam was administered intragastrically at 1.24 mg/kg; and the solvent control group was gavaged with an equal volume of solvent. The grouped animals were continued to be water deprived for 24 h and were given a single dose, and tested in a punishment experiment 30 min after the single dose.\nThe experiment was carried out in two stages. The first stage is a training stage, in which 24 h after water deprivation, animals were placed in an operation box separately, and were allowed to fully explore until they found the bottle mouth and started to lick water (with an intensity of electric shock being 0 mA), a counter automatically recorded the number of licks within 3 min, and the animals that licked water less than 300 times were eliminated.\nObservation index: the number of water licks of rats in the punishment stage.\nas §1"}, "mice [1]": {"system": "mice", "conditions": "10 mg/kg for 7 days; cited from earlier work"}, "mice [2]": {"system": "mice", "conditions": "10 mg/kg continuously for 7 days; cited from earlier work"}, "mice [3]": {"system": "mice", "conditions": "mouse, in vivo; cited from earlier work"}, "[4]": {"conditions": "comparative study (Table 13), 20 mg/kg i.g., 30 min after single administration"}},
  "data": [
    {"compound": "O=C(/C=C/c1cc2c(c(C(F)(F)F)c1)OCO2)N1CCCCC1", "note": "[Compound II-10]", "values": [
      {"measurement": "OE %", "setting": "ICR mice; [4]", "result": "50.00 ± 10.23", "unit": "%"},
      {"measurement": "OT %", "setting": "ICR mice; [4]", "result": "52.08 ± 12.25", "unit": "%"},
      {"measurement": "anxiolytic activity in elevated plus maze vs solvent control group", "setting": "ICR mice; comparative study, single intragastric administration of 20 mg/kg", "result": "significant anxiolytic activity"},
      {"measurement": "Number of times of drinking water", "setting": "SD rats; 10 mg/kg i.g., 30 min after single dose, punishment stage 3 min, n = 8", "result": "499.61 ± 133.93"},
      {"measurement": "anxiolytic activity in drinking conflict experiment vs solvent control group", "setting": "SD rats; single intragastric administration of 20 mg/kg", "result": "significant anxiolytic activity"},
      {"measurement": "immobility time of tail suspension in mice", "setting": "mice [1]", "result": "significantly shorten the immobility time"},
      {"measurement": "reserpine-induced body temperature decrease and akinesia in mice, degree of eye closure", "setting": "mice [2]", "result": "significantly antagonizing"},
      {"measurement": "immobility time of forced swimming in mice", "setting": "mice [3]", "result": "significantly shorten the immobility time"}
    ]}
  ]
}
